From patent publication US11370775B2, “Substituted benzimidazole derivatives as D-amino acid oxidase (DAAO) inhibitors” (NATIONAL TAIWAN UNIVERSITY, priority 2016, dated 2022)

Tests used:
Type in all cases: in vivo
[1] = test system: MK-801-induced hyperlocomotion in C57BL/6 mice; experiment: Open field, MK-801-induced hyperlocomotion; settings: for Effect on MK-801 induced hyperlocomotion (open field): MK-801 0.2 mg/kg i.p., mice; for Effect on MK-801-induced hyperlocomotion (FIG. 1): different dosages, compared to the MK-801 group
Source text: (§1) The NMDA-receptor antagonist MK-801-induced negative or cognitive deficits in C57BL/6 mice were in a well-established drug-induced schizophrenia mouse model and as a useful pharmacological animal model to identify if the RS-D7, its analog and its prodrug improve the symptoms through the NMDA receptor.
(§2) All wild-type (WT) mice used in this study were backcrossed onto a C57BL/6J background from the Laboratory Animal Center of National Taiwan University Hospital, and all behavioral examinations were conducted in WT mice. For acclimatizing to laboratory conditions, the mice were allowed free access to food and water and were housed in groups with a 12 hours light-dark cycle in a temperature and humidity controlled room of the Psychology Department, National Taiwan University. All animals within the age of 3 months were housed individually one week before experiment testing with food and water available ad libitum. In the beginning of the experiments, the mice were handled and weighted daily at least 1 week before the behavioral experiments. The entire animal procedures were performed according to protocols approved by the Animal Care and Use Committee established by the National Taiwan University.
(§3) MK-801 was dissolved in saline and administered at a volume of 0.01 ml/g body weight. RS-D7, Drug 12083 (analog of RS-D7) and was freshly dissolved in 1% CMC to the concentration of 2 mg/ml before usage. Prodrug 28095 was freshly dissolved in NMP:HP-beta-CD:H2O (5:25:70) to the concentration of 2 mg/ml before usage. All animals were given vehicle (saline) or MK-801 (0.2 mg/kg, i.p.) 25 minutes before the behavioral experiments. Both vehicle (1% CMC or NMP:HP-beta-CD:H2O) and experimental groups (RS-D7, Drug 12083 or Prodrug 28095) were treated after 5 minutes MK-801 administration with the appropriate dose via P.O. injections (at a volume of 0.01 ml/g body weight).
(§4) For investigating the treatment effect of RS-D7 for negative and cognitive symptoms, a series of three behavioral tests (run from the first to the third week), which included open field, sucrose preference test and prepulse inhibition were performed in sequence with a 1-week interval between tests.
To assess spontaneous locomotor activity, each subject was placed into the center of an open-field apparatus (25.40*25.40*40.64 cm^3, Coulbourn Instruments, Whitehall, Pa., USA) under dim lighting condition (60 lx). Motor activity parameters (including total travel distance and travel distance per 10 minutes) were monitored and recorded over a 60 minutes period by using Smart video tracking software (Panlab, Harvard apparatus, US). For comparing the treatment effects of different treatment groups, the percentage change of rescue effect on MK-801-induced hyperlocomotion was calculated using the following formula: %=(rescue effect of drug−MK-801 effect)×100%/MK-801 effect.

[2] = test system: MK-801-induced anhedonia in C57BL/6 mice; experiment: Sucrose preference test, MK-801-induced anhedonia; settings: for Effect on MK-801 induced anhedonia (sucrose preference): MK-801 0.2 mg/kg i.p., mice; for Effect on anhedonia after acute MK-801 injection (FIG. 2): different dosages
Source text: as §1, §2, §3, §4
To assess the anhedonia, one of the negative symptoms of schizophrenia, all mice underwent 4-day testing. In the beginning of the sucrose preference, all mice were deprived of water for 23 hours in all the experiment from one day before the first day. On the first day, each mouse was given free access to 2 identical bottles with water for 1 hour. Then, the 2 identical bottles were replaced that one filled with 1% (wt/vol) sucrose solution and the other with water on the second day. On the third and fourth day, each mouse was received MK-801 and RS-D7 treatment before the experiment, and also free accessed to bottles for 1 hour. After the experiment, the 2 bottles were weighted to measure the 1-hour consumption of sucrose solution and water. The sucrose preference percentage (SPP) was calculated using the following formula: % SPP=sucrose solution consumption (g)×100%/[water consumption (g)+sucrose solution consumption (g)].

[3] = test system: MK-801-induced PPI deficit in C57BL/6 mice; experiment: Prepulse inhibition, MK-801-induced PPI deficit; settings: MK-801 0.2 mg/kg i.p.
Source text: as §1, §2, §3, §4
To assess the sensorimotor gating function, each mouse was tested with the SR-LAB startle apparatus (San Diego Instruments, San Diego, Calif., USA). The background noise was 72 dB during testing. Each session was initiated with a 5 minutes acclimatization period followed by 64 trials, consisting of pulse-alone (P-alone) trials, prepulse pulse (pp+P) trials, and no stimulation (nostim) trials. A P-alone trial was a 120 dB white noise burst of 40 msec. In the pp+P trials, the 120 dB pulse was preceded (by 100 msec) by a 20 msec of white noise prepulse burst of 78 dB (PP6), 82 dB (PP10), or 90 dB (PP18). The nostim trials consisted of background noise only. The session began and ended with a block of six presentations of the P-alone trial. Between these two blocks, the rest of the 52 trials were performed pseudorandomly and separated by intertrial intervals of 15 sec on average (varying between 10 and 20 sec). PPI was calculated as a percentage of the startle response using the formula: % PPI=100× [(P-alone score)-(pp+P score)]/(pulse-alone score), where the pulse-alone score was the average of the pulse-alone values from the in-between block of 52 trials.

SMILES	Effect on MK-801 induced hyperlocomotion (open field) ([1]; 100 mg/kg P.O.)	Effect on MK-801 induced hyperlocomotion (open field) ([1]; 200 mg/kg P.O.)	Effect on MK-801 induced hyperlocomotion (open field) ([1]; 400 mg/kg P.O.)	Effect on MK-801-induced hyperlocomotion (FIG. 1) [1]	Effect on MK-801 induced anhedonia (sucrose preference) ([2]; 100 mg/kg P.O.)	Effect on MK-801 induced anhedonia (sucrose preference) ([2]; 200 mg/kg P.O.)	Effect on MK-801 induced anhedonia (sucrose preference) ([2]; 400 mg/kg P.O.)	Effect on anhedonia after acute MK-801 injection (FIG. 2) [2]	Effect on MK-801 induced PPI deficit ([3]; 100 mg/kg P.O.)	Effect on MK-801 induced PPI deficit ([3]; 200 mg/kg P.O.)	Effect on MK-801 induced PPI deficit ([3]; 400 mg/kg P.O.)	Effect on MK-801 induced hyperlocomotion (open field) ([1]; 20 mg/kg P.O.)	Effect on MK-801 induced hyperlocomotion (open field) ([1]; 40 mg/kg P.O.)	Effect on MK-801 induced anhedonia (sucrose preference) ([2]; 20 mg/kg P.O.)	Effect on MK-801 induced PPI deficit ([3]; 20 mg/kg P.O.)	Effect on MK-801 induced PPI deficit ([3]; 40 mg/kg P.O.)
COc1c(C)cnc(C[S+]([O-])c2nc3ccc(O)cc3[nH]2)c1C (stereo not drawn) [RS-D7, reference compound]	did not display the treatment effect	rescued the MK-801 induced hyperlocomotion	rescued the MK-801 induced hyperlocomotion	can rescue the MK-801-induced hyperlocomotion	rescued the MK-801 induced anhedonia deficit	rescued the MK-801 induced anhedonia deficit	rescued the MK-801 induced anhedonia deficit	rescue the anhedonia after acute MK-801 injection	significantly alleviated MK-801 induced PPI deficit	significantly alleviated MK-801 induced PPI deficit	significantly alleviated MK-801 induced PPI deficit	–	–	–	–	–
COc1c(C)cnc(CSc2nc3cc(C(=O)O)ccc3n2CCC2=CCCCC2)c1C [compound 12083, 1-(2-(cyclohex-1-en-1-yl)ethyl)-2-(((4-methoxy-3,5-dimethylpyridin-2-yl)methyl)thio)-1H-benzo[d]imidazole-5-carboxylic acid]	–	–	–	can rescue the MK-801-induced hyperlocomotion	–	–	–	rescue the anhedonia after acute MK-801 injection	–	–	–	alleviated MK-801 induced hyperlocomotion deficits	alleviated MK-801 induced hyperlocomotion deficits	normalized MK-801 induced anhedonia	significantly alleviated MK-801 induced PPI deficit	significantly alleviated MK-801 induced PPI deficit
